The results in this text go back to ChEMBL document CHEMBL1131739, “Synthesis of 25-aminosterols, new antifungal agents” (1999).

By MIC is commonly meant the smallest concentration in the dilution series that meets the test's criterion for growth inhibition.

In brackets after ≈: the same amount, converted by molar mass.

The assay concerns Candida albicans. Nature of the assay: In vitro antifungal activity against candida albicans (IP 1180.79). It is filed as functional.

`C[C@H](CCCC(C)(C)N)C1CC[C@@]2(C)C3=C(CC[C@]12C)[C@@]1(C)CC[C@H](O)C(C)(C)C1CC3` (some centres not stated) registered an MIC of 60 µM (≈ 26.6 µg/mL). In other words, the double-digit micromolar range. `C[C@H](CCCC(C)(C)N)C1CCC2C3CC=C4C[C@@H](O)CC[C@]4(C)C3CC[C@@]21C` (some centres not stated) came in with a minimum inhibitory concentration (MIC) of 4 µM (≈ 1.61 µg/mL).
